The subject of experiment [1] is CWR22Rv1 cells. Nature of the experiment: Cell viability, MTS metabolic activity assay, CWR22Rv1. The following applies: CWR22Rv1, 72 h. In kind it is cell-based, human. The method, then: (§1) CWR22Rv1 prostate cancer cells were treated with N6BAP or the control compound C5 (Ctrl) at 25 μM concentration or vehicle for 24 h. Following trypan blue exclusion, the attached viable vs. de-attached dead cells were counted. […] The bars indicate mean±SD of triplicate wells. In another assay, CWR22Rv1, LNCaP and DU145 cells were treated with N6BAP, the control compound C5 (Ctrl) or vehicle at indicated concentrations. The fraction of alive cells was determined by MTS ([…]) metabolic activity assay (CellTiter 96® AQueous Assay kit). The results are shown in FIGS. 9C, 9D and 9E, respectively.

Experiment [2] deals with Stat3 (Homo sapiens, UniProt P40763). Nature of the experiment: IL-6-induced nuclear translocation of Stat3 in DU145 cells (immunofluorescence). It counts as cell-based. Set-up: endogenous in cells; host or cells: DU145. The following applies: 2 hours pretreatment, 10 nmol/L IL-6 30 minutes. The method, then: DU145 prostate cancer cells were pretreated with N6BAP or vehicle (DMSO) for 2 hours and then stimulated with 10 nmol/L IL-6 for 30 minutes. Cells were fixed with 100% methanol for 15 min and subsequently permeabilized with 0.1% Triton X-100 in PBS (pH 7.4). After blocking with 2% bovine serum albumin in PBS, cells were incubated with an antibody specific for Stat3 at 4° C. for 2 hours. Cells were then washed with PBS and incubated with FITC-conjugated secondary antibody (Jackson ImmunoResearch) at room temperature for 1 hour. The images were taken by using an inverted fluorescence microscopy (Carl Zeiss).
Stat3, sequence (P40763 whole entry, species assumed): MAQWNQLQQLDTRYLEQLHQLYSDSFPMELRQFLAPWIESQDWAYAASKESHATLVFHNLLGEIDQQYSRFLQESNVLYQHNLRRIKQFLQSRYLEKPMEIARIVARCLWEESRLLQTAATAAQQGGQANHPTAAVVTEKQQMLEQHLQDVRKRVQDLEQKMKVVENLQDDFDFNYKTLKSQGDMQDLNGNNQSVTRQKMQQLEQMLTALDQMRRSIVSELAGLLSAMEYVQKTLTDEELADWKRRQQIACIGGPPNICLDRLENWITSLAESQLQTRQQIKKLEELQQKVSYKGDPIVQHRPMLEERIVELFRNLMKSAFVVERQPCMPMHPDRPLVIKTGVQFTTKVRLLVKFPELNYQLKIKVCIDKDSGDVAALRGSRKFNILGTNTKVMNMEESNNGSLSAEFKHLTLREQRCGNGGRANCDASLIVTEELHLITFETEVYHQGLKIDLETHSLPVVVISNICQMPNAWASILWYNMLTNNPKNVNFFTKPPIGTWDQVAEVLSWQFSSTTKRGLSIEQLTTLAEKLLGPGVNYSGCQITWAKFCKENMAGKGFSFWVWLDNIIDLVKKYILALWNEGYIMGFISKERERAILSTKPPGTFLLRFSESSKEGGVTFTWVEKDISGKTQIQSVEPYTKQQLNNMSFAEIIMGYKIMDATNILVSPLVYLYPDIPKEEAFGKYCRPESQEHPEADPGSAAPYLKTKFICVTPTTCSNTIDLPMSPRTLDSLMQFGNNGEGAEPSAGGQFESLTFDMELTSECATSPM

Experiment [3] concerns Stat5a/b. Put plainly: Electrophoresis mobility shift assay (EMSA) of Stat5a/b binding to DNA, nuclear extracts of transfected COS-7 cells. In kind it is cell-based. To be noted: 2 hours pretreatment, 10 nmol/L Prl 30 minutes. The method, then:
COS-7 cells were transfected with plasmids expressing Stat5a (pStat5a) and PrlR (pPrlR) using FuGENE6. After 24 hours, the cells were starved in serum-free medium for 16 hours and then pretreated with N6BAP or the control compound C5 for 2 hours and the stimulated with 10 nmol/L Prl for 30 minutes. Nuclear extracts were prepared and a gel EMSA was performed as previously described (Ahonen et al., Endocrinology 2002, 143:228-238; Nevalainen et al., Mol Endocrinol 2002, 16:1108-1124). Double stranded Stat5a/b-binding oligonucleotide probe (upper strand sequence: 5′-[…]-3′) (Boucheron et al., J Biol Chem (1998), 273:33936-33941) were end-labeled with 50 μCi of γ-^32P-ATP (5000 ci/mMol) and incubated (1 ng per reaction) with 10 μl of nuclear extracts in the final volume of 20 μl of the binding mixture (50 mM TrisHCl, pH 7.4, 25 mM MgCl2, 500 mM KCl, 5 mM DTT, 50% glycerol) and 1 μl of 1 mg/ml Poly d[(I:C)]. For a supershift control, the samples were preincubated with anti-Stat5a or anti-Stat5b antibody (Millipore) or NRS as indicated. Polyacrylamide gels (5%) containing 5% glycerol and 0.25×Tris-borate/EDTA were pre-run in 0.25×Tris-borate/EDTA buffer at 4-10° C. for 2-4 h at 300V. The gels were run at room temperature for 2.33 hours at 200 V, dried and exposed to x-ray films (X-Omat, Eastman Kodak Co.). […]
For orientation: In EMSA bound probe runs differently from free probe, usually more slowly.

Experiment [4] concerns HT1080 (fibrosarcoma). Put plainly: Cell viability assay, HT1080. It counts as cell-based.
For experiment [5], the system named is A549 human lung cancer cells. Nature of the experiment: Cell viability assay, A549. It counts as cell-based. The method, then: as §1
(§2) The procedure of Example 9 was followed, substituting cells of the following solid tumor cell lines for the cells treated in Example 9: A549 human lung cancer cells, CAPAN human pancreatic cancer cells, T47D human breast cancer cells, […], A2058 human melanoma and COS-7 monkey fibroblast cell lines.

The test system of experiment [6] is Stat5a/b. Nature of the experiment: Nuclear Stat5a/b immunostaining in CWR22Rv1 xenograft tumors. In kind it is in vivo, nude mice. The following applies: CWR22Rv1 xenograft tumors of Example 10. The method, then:
Nuclear active Stat5a/b or nuclear active Stat3 were analyzed by immunostaining with an anti-Stat5a/b or anti-Stat3 antibody, respectively, and biotin-streptavidin amplified peroxidase antiperoxidase immunodetection of paraffin-embedded sections of the prostate xenograft tumors of Example 10. Anti-Stat5a/b (mAb) (55 ng/ml) (Santa Cruz Biotechnology) was used as the primary antibody and antigen-antibody complexes were detected by appropriate biotinylated goat secondary antibodies (Biogenex Laboratories) followed by streptavidin-horseradish-peroxidase complex, and 3,3′-diaminobenzidine as chromogen and Mayer hematoxylin as counterstain. Three microscopic views of each tumor (ten tumors per each treatment group) were photographed at 20× magnification. Nuclear Stat5 and Stat3 indexes were determined by counting epithelial cells with nuclear Stat5a/b immunostaining-positive cells per total number of epithelial cells per view. The counts were averaged within the tumors in a given treatment group.

In experiment [7] the test system is CAPAN human pancreatic cancer cells. Nature of the experiment: Cell viability assay, CAPAN. In kind it is cell-based. The method, then: as §1, §2
Experiment [8] relates to prostate cancer cells. Put plainly: Induction of apoptotic death of prostate cancer cells (summary of FIGS. 9A-9E). It counts as cell-based, human. The method, then:
as §1

The subject of experiment [9] is CWR22Rv1 cells. Nature of the experiment: Nucleosomal DNA fragmentation (nucleosomal ELISA) in CWR22Rv1 cells. It counts as cell-based, human. The following applies: 24 μM N6BAP. For orientation: ELISA stands for enzyme-linked immunosorbent assay.
Experiment [10] relates to T47D human breast cancer cells. Nature of the experiment: Cell viability assay, T47D. It counts as cell-based. The method, then:
as §1, §2

The subject of experiment [11] is HepG2 (hepatocellular). Nature of the experiment: Cell viability assay, HepG2. In kind it is cell-based.

As to `O=P(O)(O)OC[C@H]1O[C@@H](n2cnc3c(NCc4ccccc4)ncnc32)[C@H](O)[C@@H]1O` [N6BAP, N^6-benzyladenosine-5′-monophosphate], in experiment [1], the “number of viable cells” value is recorded as “decreases the number of viable cells”. Besides, in experiment [2], the “nuclear translocation of IL-6-induced Stat3” value was “did not block translocation of Stat3 to the nucleus”. Moreover, the “binding of Stat5a/b to DNA (EMSA)” value in [3] is “inhibited binding of Stat5a/b to DNA”. Further, the cell viability entry in experiment [4], in [5], in [7], in experiment [10] and in experiment [11] was “did not affect the viability” each time. For the same molecule, in experiment [6], the “nuclear Stat5a/b expression in xenograft tumors” value is “inhibits nuclear Stat5a/b expression”. In addition, the “treatment time required to induce prostate cancer cell apoptosis” value in [8] was “at least 48 hours”. In addition, the “apoptotic death of prostate cancer cells” value in experiment [8] (CWR22Rv1, LNCaP, DU145) is reported as “induces apoptotic death of prostate cancer cells”. Also, the “DNA fragmentation (apoptosis)” value in experiment [9] is “N6BAP-induced DNA fragmentation”.

The record behind these values is patent publication US20160038526A1, “TREATMENT OF PROSTATE CANCER” (THOMAS JEFFERSON UNIVERSITY, priority 2012, published 2016).
